The target of test [1] is T1, hATE1 (Homo sapiens, UniProt O95260). In words: Differential scanning fluorimetry of hATE1 with or without ligands. Conditions: DSF; for change of melting temperature of hATE1 in the presence of ligand: absence of tRNA, result in words.
Test [2] relates to RGS4. In words: Immunoblotting, proteasomal flux. Conditions: MG132 10 μM, 6 h.
Test [3] concerns the target T1, hATE1. In words: MST direct binding assay, hATE1-peptide interaction. Conditions: with vs without A + T arms.
For the next test, the system named is human ATE1. In words: Intact protein analysis of purified ATE1. Conditions: purified recombinant ATE1, GST-tag removed, LC-MS.
Test [4] has as its system RGS4. In words: Immunocytochemistry, RGS4 level in ATE1 deficient HeLa cells. Particulars: ATE1-KO HeLa cells.

Peptide text beside a SMILES is read from it. * marks the point of attachment. Cbz = O=C(OCc1ccccc1)*

T1 sequence (O95260 1-518 isoform O95260-2): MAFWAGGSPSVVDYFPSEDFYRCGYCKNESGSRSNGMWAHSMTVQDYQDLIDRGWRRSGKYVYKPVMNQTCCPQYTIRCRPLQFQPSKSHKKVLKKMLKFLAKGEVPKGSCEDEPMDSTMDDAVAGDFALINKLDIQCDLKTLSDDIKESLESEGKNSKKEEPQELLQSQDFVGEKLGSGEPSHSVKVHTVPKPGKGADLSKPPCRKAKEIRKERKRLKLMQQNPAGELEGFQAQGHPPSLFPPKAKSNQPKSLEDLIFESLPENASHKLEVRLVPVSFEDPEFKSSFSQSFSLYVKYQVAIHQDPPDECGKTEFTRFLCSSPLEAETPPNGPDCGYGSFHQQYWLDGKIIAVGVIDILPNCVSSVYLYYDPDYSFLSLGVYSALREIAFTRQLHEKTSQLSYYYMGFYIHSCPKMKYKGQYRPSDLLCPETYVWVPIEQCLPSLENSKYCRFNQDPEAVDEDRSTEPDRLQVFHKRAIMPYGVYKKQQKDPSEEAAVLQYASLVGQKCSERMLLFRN

`O=C(O)CN(CCN(CC(=O)O)CC(=O)O)CC(=O)O` [EDTA]: on hATE1 [1] (increasing amount of EDTA, duplicate measurements), the “thermal stability decrease of ATE1 on EDTA treatment” value is ~ 7 °C. Regarding `CC(C)C[C@@H](C=O)NC(=O)[C@H](CC(C)C)NC(=O)[C@H](CC(C)C)NC(=O)OCc1ccccc1` [MG132] (Cbz-Leu-Leu-Leu-aldehyde), in the test with RGS4 [2] (ATE1-KO HeLa cells), the “RGS4 accumulation post-MG132” value is “no RGS4 accumulation”. Further, the “normalized P.F. index (fold change), RGS4 accumulation” value with RGS4 [2] (WT ATE1 HeLa cells) was ~ 29 fold change. Take `N=C(N)NCCC[C@H](N)C(=O)O` [free arginine, arginine]: on hATE1 [1], the “change of melting temperature of hATE1 in the presence of ligand” value is “no change was observed”. Same read-out and setting: the result for `NC(=O)CC[C@H](N)C(N)=O` [glutamine amide] reads “no change was observed”. On to RDDIAA-FAM, for which, at hATE1 [3], the “fold enhancement of binding affinity by tRNA-mimetic (A + T arms)” value is 15 -fold. Consider “WT hATE1: human arginyl-tRNA-protein transferase 1 isoform 2, wild type, recombinant”, for which the “small arginylated fraction of ATE1” value in the test on human ATE1 was < 3 % of total. Further, the “RGS4 proteasomal flux / RGS4 stabilization” value in the test with RGS4 [2] (ATE1-KO HeLa cells expressing the ATE1 construct) is “restored the P.F. index”. Further, the “RGS4 level by immunostaining” value in the test on RGS4 [4] is “but not in those transfected with WT ATE1”.

The values are drawn from article PMC11283454 (Nature Communications, 2024).
